Measured values taken from article PMC7753047, “Reversal of Cancer Multidrug Resistance (MDR) Mediated by ATP-Binding Cassette Transporter G2 (ABCG2) by AZ-628, a RAF Kinase Inhibitor” (Frontiers in Cell and Developmental Biology, 2020).

Key:
[1] = biological target: T1, ABCG2 (Homo sapiens, UniProt Q9UNQ0); assay: vanadate-sensitive ATPase assay in ABCG2 membranes (stimulation up to […]); also inhibition of [3H]-mitoxantrone efflux at […]; format: cell-based; parameters: full-length human ABCG2 in membranes of transfected HEK293 cells; details: read-out: vanadate-sensitive ATPase assay in ABCG2 membranes (stimulation up to 4.3-fold)
T1 sequence (Q9UNQ0 1-655): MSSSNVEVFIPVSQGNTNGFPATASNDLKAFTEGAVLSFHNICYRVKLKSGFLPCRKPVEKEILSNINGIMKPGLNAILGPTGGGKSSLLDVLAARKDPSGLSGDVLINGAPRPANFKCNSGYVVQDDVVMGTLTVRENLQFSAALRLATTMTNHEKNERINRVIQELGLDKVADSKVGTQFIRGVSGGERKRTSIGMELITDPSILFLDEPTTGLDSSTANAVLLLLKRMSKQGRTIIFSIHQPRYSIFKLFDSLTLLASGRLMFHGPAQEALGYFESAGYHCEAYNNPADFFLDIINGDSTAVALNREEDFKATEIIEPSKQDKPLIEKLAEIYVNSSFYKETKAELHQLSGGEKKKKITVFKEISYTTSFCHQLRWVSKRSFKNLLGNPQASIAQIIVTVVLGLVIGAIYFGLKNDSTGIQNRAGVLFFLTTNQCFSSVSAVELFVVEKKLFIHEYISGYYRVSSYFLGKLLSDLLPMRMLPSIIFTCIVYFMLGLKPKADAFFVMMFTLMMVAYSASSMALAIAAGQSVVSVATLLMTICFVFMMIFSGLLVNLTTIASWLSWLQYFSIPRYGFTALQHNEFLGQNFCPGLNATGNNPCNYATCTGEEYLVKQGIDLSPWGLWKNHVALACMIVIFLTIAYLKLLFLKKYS

[2] = biological target: T1, ABCG2; assay: vanadate-sensitive ATPase assay in ABCG2 membranes (stimulation); format: cell-based; parameters: full-length human ABCG2 in membranes of transfected HEK293 cells
[3] = biological target: T1, ABCG2

SMILES | vanadate-sensitive ATPase assay in ABCG2 membranes (stimulation) [2] | other results
Cc1ccc(NC(=O)c2cccc(C(C)(C)C#N)c2)cc1Nc1ccc2ncn(C)c(=O)c2c1 [AZ-628] | – | maximal fold induction [1]: 4.3
COc1ccc([C@@H](O)c2cc(-c3ncnc4cc(N5CCOCC5)ccc34)c(F)cc2Cl)nn1 [M3814] | The results showed that AZ-628 stimulated ABCG2 ATPase to a higher level than M3814. | –
O=C1c2c(O)ccc(O)c2C(=O)c2c(NCCNCCO)ccc(NCCNCCO)c21 [mitoxantrone] | – | [3H]-mitoxantrone efflux from ABCG2-overexpressing cells [3]: plotted to reflect the efflux of [^3H]-mitoxantrone by ABCG2
CC[C@@]1(O)C(=O)OCc2c1cc1n(c2=O)Cc2cc3c(CN(C)C)c(O)ccc3nc2-1 [topotecan] | Compared with the ABCG2 substrate topotecan, which is also an ABCG2 ATPase stimulator, AZ-628 showed stronger activation effects | –
